Reference: PMC9503608, “An Insight into Symmetrical Cyanine Dyes as Promising Selective Antiproliferative Agents in Caco-2 Colorectal Cancer Cells” (Molecules, 2022)
Read-outs that look alike come from different tables or passages of the source.

Tests used:
[1] = system: MCF-7 breast adenocarcinoma cell line; test: MTT cell viability assay, MCF-7; assay type: cell-based, human; conditions: for viability at 10 µM: Homo sapiens, read-out: cell viability percentage in relation with control, MCF-7
Method: (§1) Caco-2, MCF-7, PC-3, and NHDF cell lines were obtained from the American Type Culture Collection (ATCC) and maintained in 75 cm^2 culture flasks in a humidified atmosphere at 37 °C with 5% carbon dioxide using a LEEC Culture Safe Precision CO2 Incubator. The culture media was renewed every two to three days. The NHDF cell line was cultured in Roswell Park Memorial Institute (RPMI) medium supplemented with 10% of inactivated fetal bovine serum (FBS), 2 mM of L-glutamine, 10 mM of 4-(2-hydroxyethyl)-1-piperazineethanesulfonic acid (HEPES), 1 mM of sodium pyruvate, and 1% of antibiotic/antimycotic mixture (Ab; 10,000 U/mL of penicillin G, […] of streptomycin, and 25 µg/mL of amphotericin B). The PC-3 cell line was also cultured in RPMI 1640 medium supplemented with 10% inactivated FBS and 1% of an antibiotic mixture (Sp; 10,000 U/mL of penicillin G and […] of streptomycin). The Caco-2 and MCF-7 cell lines were grown in Dulbecco’s Modified Eagle Medium (DMEM). Caco-2 was supplemented with 20% of inactivated FBS and 1% of Sp. On the other hand, the MCF-7 medium was complemented with 10% of inactivated FBS and 1% of Ab. All manipulations were performed in a Labculture Class II A2 Biological Safety Cabinet.
(§2) After the near confluency of cultures, cells were detached with a solution of 0.125 g/L trypsin and 0.02 g/L ethylenediaminetetracetic acid (EDTA), counted using the trypan blue method, resuspended, and seeded in 96-well culture plates (100 µL, 2 × 10^4 cells/mL). Following 48 h of adherence, cells were treated with the test solutions and incubated for 72 h. This incubation, as well as the solution manipulations, were performed in an environment protected from light. After the incubation, the medium was replaced with a fresh incomplete culture medium (without FBS and Ab or Sp) and MTT solution (5 mg/mL in phosphate buffer saline (PBS)). After additional incubation for 4 h, the MTT medium was removed, formazan crystals were dissolved in DMSO, and the optical density of each well was measured at 570 nm using a microplate spectrophotometer Bio-Rad xMark. Untreated cells were used as a negative control and 5-FU as the positive control. The results were expressed as the relative cell proliferation relative to the negative control cells. […] To determine the IC50 values, Caco-2, MCF-7, PC-3, and NHDF cells were exposed to increasing concentrations between 0.001 and 100 μM.

[2] = system: normal human dermal fibroblasts (NHDF); test: MTT cell viability assay, NHDF; assay type: cell-based; conditions: for IC50: 72 h of incubation, MTT, protected from light; for cell viability percentage in relation with control, NHDF: single concentration of 10 µM, mean ± SD
Method: as §1, §2

[3] = MTT cell viability assay, NHDF; assay type: cell-based, human; conditions: human, normal human dermal fibroblasts (NHDF), single concentration of 10 µM, 72 h, mean ± SD; read-out: cell viability percentage in relation with control, NHDF
Method: as §1, §2

[4] = system: PC-3 prostate adenocarcinoma cell line; test: MTT cell viability assay, PC-3; assay type: cell-based, human
Method: as §1, §2

[5] = system: Caco-2 colorectal adenocarcinoma cell line; test: MTT cell viability assay, Caco-2; assay type: cell-based, human; conditions: for SI Caco-2 (selectivity index, cancer versus NHDF): Caco-2 versus NHDF; for IC50: 72 h of incubation, MTT, protected from light; for viability at 10 µM: read-out: cell viability percentage in relation with control, Caco-2
Method: as §1, §2

[6] = MTT cell viability assay, Caco-2; assay type: cell-based, human; conditions: human, 72 h, read-out: SI Caco-2 (selectivity index, cancer versus NHDF)
Method: as §1, §2

[7] = MCF7, 72 h, single concentration of 10 µM, 72 h, mean ± SD
[8] = Homo sapiens, 72 h, single concentration of 10 µM, 72 h, mean ± SD; read-out: cell viability percentage in relation with control, PC-3
[9] = Homo sapiens, Caco-2, 72 h, single concentration of 10 µM, 72 h, mean ± SD
[10] = single concentration of 10 µM, 72 h, mean ± SD

Row | SMILES | IC50 ([5]; Homo sapiens, Caco-2, 72 h) | melting point | viability at 10 µM [1, 7] | IC50 ([2]; Homo sapiens, NHDF, 72 h) | viability at 72 h, 10 µM [3] | viability at 10 µM [4, 8] | SI Caco-2 (selectivity index, cancer versus NHDF) ([5]; 72 h) | viability at 10 µM [5, 9] | selectivity ratio at 72 h ([6]; Caco-2, Caco-2 versus NHDF) | further results
1 | CN1C(=Cc2sc3ccccc3[n+]2C)Sc2ccccc21.[I-] [Dye 4, 3-Methyl-2-((3-methylbenzo[d]thiazol-2(3H)-ylidene)methyl)benzo[d]thiazol-3-ium iodide] |  |  |  |  |  |  | 1.8 |  |  | cell viability percentage in relation with control, MCF-7 [1, 10]: 2.26 ± 0.82%; IC50 ([2]; listed as 4): 730 nM; cell viability percentage in relation with control, NHDF ([2]; 72 h): 3.82 ± 0.21%; cell viability percentage in relation with control, PC-3 [4, 10]: 1.18 ± 0.36%; IC50 ([5]; listed as 4): 400 nM; cell viability percentage in relation with control, Caco-2 [5, 10]: 3.01 ± 0.74%
2 | CN1C(=Cc2sc3ccccc3[n+]2C)Sc2ccccc21.Cc1ccc(S(=O)(=O)[O-])cc1 [Dye 5, 3-Methyl-2-((3-methylbenzo[d]thiazol-2(3H)-ylidene)methyl)benzo[d]thiazol-3-ium 4-methylbenzenesulfonate] |  |  |  |  |  |  | 2.4 |  |  | cell viability percentage in relation with control, MCF-7 [1, 10]: 1.55 ± 0.53%; IC50 ([2]; listed as 5): 680 nM; cell viability percentage in relation with control, NHDF ([2]; 72 h): 4.42 ± 0.55%; cell viability percentage in relation with control, PC-3 [4, 10]: 1 ± 0.18%; IC50 ([5]; listed as 5): 280 nM; cell viability percentage in relation with control, Caco-2 [5, 10]: 2.55 ± 0.58%
3 | CCN1C(=Cc2sc3ccccc3[n+]2CC)Sc2ccccc21 [Dye 6] | 300 nM |  | 1.08 ± 0.23% | 490 nM | 3.37 ± 0.65% | 2.06 ± 0.89% |  | 3.52 ± 0.3% | 1.6 | 
4 | CCN1C(=Cc2sc3ccccc3[n+]2CC)Sc2ccccc21.[O-][Cl+3]([O-])([O-])[O-] [Dye 7, 3-Ethyl-2-((3-ethylbenzo[d]thiazol-2(3H)-ylidene)methyl)benzo[d]thiazol-3-ium perchlorate] |  | 296 to 297 °C |  |  | 3.34 ± 0.14% |  |  |  |  | viability at 10 µM ([1]; MCF7, 72 h): 0.96 ± 0.61%; IC50 ([2]; Homo sapiens, NHDF): 830 nM; viability at 10 µM ([4]; Homo sapiens, 72 h, read-out: cell viability percentage in relation with control, PC-3): 1.19 ± 0.29%; viability at 10 µM ([5]; Homo sapiens, Caco-2, 72 h): 3.11 ± 0.94%; IC50 ([5]; Homo sapiens, Caco-2): 280 nM; selectivity ratio at 72 h ([6]; Caco-2 versus NHDF): 3
5 | C(=C1Sc2ccccc2N1Cc1ccccc1)c1sc2ccccc2[n+]1Cc1ccccc1.[I-] [Dye 8, 3-Benzyl-2-((3-benzylbenzo[d]thiazol-2(3H)-ylidene)methyl)benzo[d]thiazol-3-ium iodide] | 950 nM | 249 to 250 °C | 1.47 ± 1.13% | 930 nM | 2.04 ± 0.39% | 1.16 ± 0.49% |  | 0.32 ± 0.03% | 1 | 
6 | COC(=O)CN1C(=Cc2sc3ccccc3[n+]2CC(=O)OC)Sc2ccccc21.[Br-] [Dye 9, 3-(2-Methoxy-2-oxoethyl)-2-((3-(2-methoxy-2-oxoethyl)benzo[d]thiazol-2(3H)-ylidene)methyl)benzo[d]thiazol-3-ium bromide] | 1000 nM | 226 to 227 °C | 49 ± 13.9% |  | 47.9 ± 3.64% | 46.8 ± 14% |  | 47 ± 6.81% | 0.7 | 
7 | CCCCCN1C(=Cc2sc3ccccc3[n+]2CCCCC)Sc2ccccc21.[I-] [Dye 10, 3-Pentyl-2-((3-pentylbenzo[d]thiazol-2(3H)-ylidene)methyl)benzo[d]thiazol-3-ium iodide] | 1240 nM | 164 to 166 °C | 0.87 ± 2.53% | 670 nM | 0.1 ± 0.36% | 0.97 ± 0.26% | 0.7 | 1.02 ± 0.42% | 0.6 | IC50 [5]: 1000 nM
8 | CCCCCCCCCCN1C(=Cc2sc3ccccc3[n+]2CCCCCCCCCC)Sc2ccccc21.[I-] [Dye 11, 3-Decyl-2-((3-decylbenzo[d]thiazol-2(3H)-ylidene)methyl)benzo[d]thiazol-3-ium iodide] | 1240 nM | 232 to 233 °C | 0.1 ± 0.69% | 720 nM | 0.15 ± 0.38% | 0.94 ± 0.11% |  | 0.66 ± 0.44% | 0.6 | 
9 | CCN1C(=CC=Cc2oc3ccccc3[n+]2CC)Oc2ccccc21 [Dye 15, 3-Ethyl-2-(3-(3-ethylbenzo[d]oxazol-2(3H)-ylidene)prop-1-en-1-yl)benzo[d]oxazol-3-ium iodide] | 390 nM |  | 6.03 ± 0.77% | 4020 nM | 3.72 ± 0.23% | 13.3 ± 1.9% |  | 8.58 ± 0.92% | 10.4 | 
10 | CCCCCCCCCCN1C(=CC=C2CCCC(C=Cc3[se]c4ccccc4[n+]3CCCCCCCCCC)=C2Cl)[Se]c2ccccc21.[I-] [Dye 18, 2-(2-(2-Chloro-3-(2-(3-decylbenzo[d][1,3]selenazol-2(3H)-ylidene)ethylidene)cyclohex-1-en-1-yl)vinyl)-3-decylbenzo[d][1,3]selenazol-3-ium iodide] |  | 221 to 224 °C |  |  | 36.6 ± 1.75% |  |  |  |  | viability at 10 µM ([1]; MCF7, single concentration of 10 µM, 72 h, mean ± SD): 51.8 ± 10.1%; viability at 10 µM ([4]; Homo sapiens; single concentration of 10 µM, 72 h, mean ± SD; read-out: cell viability percentage in relation with control, PC-3): 28.4 ± 7.73%; viability at 10 µM ([5]; Homo sapiens, Caco-2, single concentration of 10 µM, 72 h, mean ± SD): 47.2 ± 5.29%
11 | CC1(C)C(=CC=C2CCCC(C=CC3=[N+](CCCCS(=O)(=O)O)c4ccccc4C3(C)C)=C2Cl)N(CCCCS(=O)(=O)O)c2ccccc21 [Dye 19, 2-(2-(2-Chloro-3-(2-(3,3-dimethyl-1-(4-sulfobutyl)indolin-2-ylidene)ethylidene)cyclohex-1-en-1-yl)vinyl)-3,3-dimethyl-1-(4-sulfobutyl)-3H-indol-1-ium iodide] |  |  | 94.4 ± 7.99% |  | 42 ± 1.76% | 51.1 ± 5.32% |  | 57.4 ± 1.75% |  | 
12 | c1ccc2sc(Cc3nc4ccccc4s3)nc2c1 [bisbenzothiazole 1, bis(benzo[d]thiazol-2-yl)methane] |  | 97 to 98 °C | 55.7 ± 4.97% |  | 31 ± 0.57% | 53.2 ± 9.68% |  | 59.6 ± 5.45% |  | 

Continued, in another order:

Row | IC50 ([5]; Homo sapiens, Caco-2, 72 h) | melting point | SMILES | viability at 10 µM [1, 7] | IC50 ([2]; Homo sapiens, NHDF, 72 h) | viability at 72 h, 10 µM [3] | viability at 10 µM [4, 8] | SI Caco-2 (selectivity index, cancer versus NHDF) ([5]; 72 h) | viability at 10 µM [5, 9] | selectivity ratio at 72 h ([6]; Caco-2, Caco-2 versus NHDF) | further results
13 | 650 nM |  | CN1/C(=C/c2sc3ccccc3[n+]2C)Sc2ccccc21 [Dye 2, Methyl-2-((3-methylbenzo[d]thiazol-2(3H)-ylidene)methyl)benzo[d]thiazol-3-ium chloride] | 0.85 ± 0.34% | 770 nM | 5.64 ± 1.15% | 1.29 ± 0.24% | 1.2 | 2.18 ± 0.64% |  | 
14 | 520 nM |  | CN1C(=Cc2sc3ccccc3[n+]2C)Sc2ccccc21.[Br-] [Dye 3, 3-Methyl-2-((3-methylbenzo[d]thiazol-2(3H)-ylidene)methyl)benzo[d]thiazol-3-ium bromide] |  | 410 nM |  | 1.27 ± 0.31% | 0.8 | 1.68 ± 0.53% |  | cell viability percentage in relation with control, MCF-7 [1, 10]: 0.52 ± 0.39%; cell viability percentage in relation with control, NHDF ([2]; 72 h): 3.93 ± 0.75%
